In the NIST ThermoML archive (doi:10.1016/j.jct.2018.01.025):
Several values for one entry are separate records, joined by “and”; a condition that tells them apart may be missing. Identical values can stand only once.

Conditions: Liquid; for mass density: Vibrating tube method

CCCC[n+]1cccc(C)c1.O=S(=O)([N-]S(=O)(=O)C(F)(F)F)C(F)(F)F
Conditions	viscosity
278.15 K, 101.33 kPa, Concentric cylinders viscometry	201 mPa·s
283.15 K, 101.33 kPa, Concentric cylinders viscometry	146.3 mPa·s
288.13 K, 101.33 kPa, Vibrating wire viscometry	107.09 mPa·s
288.15 K, 101.33 kPa, Concentric cylinders viscometry	109.5 mPa·s
292.95 K, 101.33 kPa, Vibrating wire viscometry	83.24 mPa·s
293.15 K, 101.33 kPa, Concentric cylinders viscometry	84.1 mPa·s
296.3 K, 101.33 kPa, Vibrating wire viscometry	71.15 mPa·s
298.15 K, 101.33 kPa, Concentric cylinders viscometry	65.6 mPa·s
298.25 K, 101.33 kPa, Vibrating wire viscometry	65 mPa·s and 64.91 mPa·s
300.55 K, 101.33 kPa, Vibrating wire viscometry	58.21 mPa·s
302.98 K, 101.33 kPa, Vibrating wire viscometry	52.92 mPa·s
303.15 K, 101.33 kPa, Concentric cylinders viscometry	52.31 mPa·s
303.15 K, 10000 kPa, Falling or rolling sphere viscometry	58.6 mPa·s
303.15 K, 15000 kPa, Falling or rolling sphere viscometry	62.3 mPa·s
303.15 K, 25000 kPa, Falling or rolling sphere viscometry	70.4 mPa·s
303.15 K, 50000 kPa, Falling or rolling sphere viscometry	94.7 mPa·s
303.15 K, 75000 kPa, Falling or rolling sphere viscometry	126.3 mPa·s
307.84 K, 101.33 kPa, Vibrating wire viscometry	43.69 mPa·s
308.15 K, 101.33 kPa, Concentric cylinders viscometry	42.36 mPa·s
310.19 K, 101.33 kPa, Vibrating wire viscometry	40.27 mPa·s
313.15 K, 101.33 kPa, Concentric cylinders viscometry	35.01 mPa·s
313.15 K, 10000 kPa, Falling or rolling sphere viscometry	40.1 mPa·s
313.15 K, 15000 kPa, Falling or rolling sphere viscometry	42.3 mPa·s
313.15 K, 25000 kPa, Falling or rolling sphere viscometry	47.2 mPa·s
313.15 K, 50000 kPa, Falling or rolling sphere viscometry	61.7 mPa·s
313.15 K, 75000 kPa, Falling or rolling sphere viscometry	80.5 mPa·s
313.15 K, 100000 kPa, Falling or rolling sphere viscometry	104.9 mPa·s
318.15 K, 101.33 kPa, Concentric cylinders viscometry	29.01 mPa·s
323.15 K, 101.33 kPa, Concentric cylinders viscometry	24.47 mPa·s
323.15 K, 10000 kPa, Falling or rolling sphere viscometry	27.2 mPa·s
323.15 K, 15000 kPa, Falling or rolling sphere viscometry	28.7 mPa·s
323.15 K, 25000 kPa, Falling or rolling sphere viscometry	32 mPa·s
323.15 K, 50000 kPa, Falling or rolling sphere viscometry	41.6 mPa·s
323.15 K, 75000 kPa, Falling or rolling sphere viscometry	53.5 mPa·s
323.15 K, 100000 kPa, Falling or rolling sphere viscometry	68.5 mPa·s
328.15 K, 101.33 kPa, Concentric cylinders viscometry	20.87 mPa·s
333.15 K, 101.33 kPa, Concentric cylinders viscometry	17.97 mPa·s
333.15 K, 10000 kPa, Falling or rolling sphere viscometry	20 mPa·s
333.15 K, 15000 kPa, Falling or rolling sphere viscometry	20.8 mPa·s
333.15 K, 25000 kPa, Falling or rolling sphere viscometry	22.8 mPa·s
333.15 K, 50000 kPa, Falling or rolling sphere viscometry	29.2 mPa·s
333.15 K, 75000 kPa, Falling or rolling sphere viscometry	37.2 mPa·s
333.15 K, 100000 kPa, Falling or rolling sphere viscometry	46.3 mPa·s
338.15 K, 101.33 kPa, Concentric cylinders viscometry	15.61 mPa·s
343.15 K, 101.33 kPa, Concentric cylinders viscometry	13.68 mPa·s
343.15 K, 10000 kPa, Falling or rolling sphere viscometry	14.8 mPa·s
343.15 K, 15000 kPa, Falling or rolling sphere viscometry	15.7 mPa·s
343.15 K, 25000 kPa, Falling or rolling sphere viscometry	17.4 mPa·s
343.15 K, 50000 kPa, Falling or rolling sphere viscometry	21.7 mPa·s
343.15 K, 75000 kPa, Falling or rolling sphere viscometry	26.7 mPa·s
343.15 K, 100000 kPa, Falling or rolling sphere viscometry	33.2 mPa·s
348.15 K, 101.33 kPa, Concentric cylinders viscometry	12.07 mPa·s
353.15 K, 101.33 kPa, Concentric cylinders viscometry	10.78 mPa·s
353.15 K, 10000 kPa, Falling or rolling sphere viscometry	11.5 mPa·s
353.15 K, 15000 kPa, Falling or rolling sphere viscometry	12.1 mPa·s
353.15 K, 25000 kPa, Falling or rolling sphere viscometry	13.2 mPa·s
353.15 K, 50000 kPa, Falling or rolling sphere viscometry	16.4 mPa·s
353.15 K, 75000 kPa, Falling or rolling sphere viscometry	20.2 mPa·s
353.15 K, 100000 kPa, Falling or rolling sphere viscometry	24.8 mPa·s
358.15 K, 101.33 kPa, Concentric cylinders viscometry	9.59 mPa·s
363.15 K, 101.33 kPa, Concentric cylinders viscometry	8.63 mPa·s
368.15 K, 101.33 kPa, Concentric cylinders viscometry	7.8 mPa·s
373.15 K, 101.33 kPa, Concentric cylinders viscometry	7.09 mPa·s

101.33 kPa
Conditions	mass density [kg/m3]
278.15 K	1431.3
283.15 K	1426.4
288.15 K	1421.6
293.15 K	1416.9
298.15 K	1412.3
303.15 K	1407.8
308.15 K	1403.2
313.15 K	1398.7
318.15 K	1394.3
323.15 K	1389.8
328.15 K	1385.4
333.15 K	1380.9
338.15 K	1376.4
343.15 K	1372
348.15 K	1367.5
353.15 K	1362.9
358.15 K	1358.3
363.15 K	1353.9
368.15 K	1349.6
373.15 K	1345.4

CCOS(=O)(=O)[O-].CCn1cc[n+](C)c1 [1-ethyl-3-methylimidazolium ethyl sulfate]
101.33 kPa
Conditions	viscosity
278.15 K, Concentric cylinders viscometry	329 mPa·s
283.15 K, Concentric cylinders viscometry	234.5 mPa·s
288.15 K, Concentric cylinders viscometry	172.2 mPa·s
293.15 K, Concentric cylinders viscometry	130.1 mPa·s
298.15 K, Concentric cylinders viscometry	100 mPa·s
298.52 K, Vibrating wire viscometry	97.32 mPa·s and 98.21 mPa·s
303.15 K, Concentric cylinders viscometry	78.66 mPa·s
303.34 K, Vibrating wire viscometry	76.57 mPa·s
303.38 K, Vibrating wire viscometry	76.99 mPa·s
303.64 K, Vibrating wire viscometry	76.57 mPa·s
308.15 K, Concentric cylinders viscometry	62.99 mPa·s
308.21 K, Vibrating wire viscometry	61.5 mPa·s
313.15 K, Concentric cylinders viscometry	51.59 mPa·s
313.23 K, Vibrating wire viscometry	51.09 mPa·s
313.24 K, Vibrating wire viscometry	50.47 mPa·s
318.15 K, Concentric cylinders viscometry	42.36 mPa·s
318.43 K, Vibrating wire viscometry	41.55 mPa·s
322.6 K, Vibrating wire viscometry	36.51 mPa·s
323.02 K, Vibrating wire viscometry	35.9 mPa·s
323.15 K, Concentric cylinders viscometry	35.43 mPa·s
328.15 K, Concentric cylinders viscometry	29.98 mPa·s
333.15 K, Concentric cylinders viscometry	25.64 mPa·s
338.15 K, Concentric cylinders viscometry	22.13 mPa·s
343.15 K, Concentric cylinders viscometry	19.27 mPa·s
348.15 K, Concentric cylinders viscometry	16.91 mPa·s
353.15 K, Concentric cylinders viscometry	15.03 mPa·s
358.15 K, Concentric cylinders viscometry	13.3 mPa·s
363.15 K, Concentric cylinders viscometry	11.9 mPa·s
368.15 K, Concentric cylinders viscometry	10.71 mPa·s
373.15 K, Concentric cylinders viscometry	9.69 mPa·s

101.33 kPa
Conditions	mass density [kg/m3]
278.15 K	1251.2
283.15 K	1247.3
288.15 K	1243.7
293.15 K	1240.1
298.15 K	1236.7
303.15 K	1233.3
308.15 K	1229.9
313.15 K	1226.5
318.15 K	1223.2
323.15 K	1219.9
328.15 K	1216.6
333.15 K	1213.4
338.15 K	1210.2
343.15 K	1206.9
348.15 K	1203.6
353.15 K	1200.1
358.15 K	1196.6
363.15 K	1193.4
368.15 K	1190.5
373.15 K	1187.4
